Key:
mAb E06 = assay: Binding of mAb E06 to compound 9; settings: Figure S2, Supporting Information
CD36 scavenger receptor = assay: Competition for binding of CuOxLDL to the CD36 scavenger receptor; settings: Figure S1, Supporting Information
macrophages = settings: at the concentrations used, even at room temperature for up to 72 hours; cell number or protein content, time course studies of cell function (data not shown)
J774 murine macrophages = assay: CD36 Macrophage Receptor Binding Competition Assay; settings: competition with OxLDL binding
[1] = Stability in aqueous solution; assay type: physicochemical
Water solubility = assay type: physicochemical

## CCCCCCCCCCCCCCCC(=O)OC[C@H](COP(=O)([O-])OCC[N+](C)(C)C)OC(=O)CCCCN(C)CCCC[C@H](NC(=O)[C@@H](NC(=O)CNC(=O)[C@@H](NC(C)=O)[C@@H](C)O)[C@@H](C)O)C(=O)NCC(=O)NCC(=O)O [Compound 9, (4S,10S,13S,25R)-13-((2-((carboxymethyl)amino)-2-oxoethyl)carbamoyl)-4,10-bis((R)-1-hydroxyethyl)-18-methyl-2,5,8,11,23-pentaoxo-25-((palmitoyloxy)methyl)-24-oxa-3,6,9,12,18-pentaazahexacosan-26-yl-(2-(trimethylammonio)-ethyl) phosphate]
mAb E06
  binding of mAb E06 (in words): specifically binds
CD36 scavenger receptor
  competition for the binding of CuOxLDL to the CD36 scavenger receptor (in words): competes with high affinity
macrophages
  impact on viability of macrophages: no impact
J774 murine macrophages
  binding to macrophage scavenger receptors (in words): binds to macrophage scavenger receptors
[1]
  stability in aqueous solution (in words): stable
Water solubility
  water solubility (in words): water soluble

From publication PMC3465084 (Journal of medicinal chemistry, 2012)
